Experimental data as given in patent US20140096445A1, “METHOD OF CULTIVATION IN WATER DEFICIT CONDITIONS” (SYNGENTA PARTICIPATIONS AG, priority 2011, published 2014).

Assays:
corn [1] = assay: Lateral-move sprinkler irrigation field study, 113 day maturity corn hybrid, Examples 11-12; assay type: in vivo; settings: 261 gai/ha, 60% irrigated deficit
corn [2] = assay: Lateral-move sprinkler irrigation field study, 112 day maturity corn hybrid, Examples 24-25; assay type: in vivo; settings: 250 gai/ha, 60% irrigated deficit
Description: Testing Procedure: A sprinkler irrigation field study was conducted on a deep silt loam soil using a 112 day maturity corn hybrid. This trial was conducted to quantify the impact of azoxystrobin and trinexapac-ethyl on grain yield, and water productivity of corn under limited (deficit) and fully-irrigated settings. The study utilized a lateral-move sprinkler irrigation (LMS) system. The study was replicated three times in an […]. Each main plot was approximately 185 sq. meters. Irrigation control panels, chemical injection pumps, and filters were housed at the irrigation well house to manage irrigation and chemigation events.
Soil water status was monitored throughout the growing season using soil moisture sensors. Corn seed was planted with a precision planter at a depth of 2 inches and rows spaced at 30 inches. The planting population was 30,000 seeds per acre. Testing parameters, and irrigation levels were conducted according to the Kansas State University experimental procedure [see e.g., (1) Lamm, F. R., A. J. Schlegel, and G. A. Clark. 2003. Development of a Best Management Practice for Nitrogen Fertigation of Corn Using SDI. Appl. Engr in Agric. and (2) Lamm, F. R., H. L. Manges, L. R. Stone, A. H. Khan, and D. H. Rogers. 1995. Water requirement of subsurface drip-irrigated corn in northwest Kansas. Trans. ASAE, 38(2):441-448.]. Moisture levels, irrigation levels, evapotranspiration, and plant health were measured throughout the growing season. Climatic variables were measured (air temperature, rainfall, solar and net radiation, relative humidity, rainfall, wind speed and direction) throughout the season. Irrigation for the fully irrigated treatments was scheduled according to need by a climatic water budget using calculated evapotranspiration as a withdrawal and with rainfall and irrigation as deposits. Irrigation amounts for each event for the fully irrigated plots were generally 0.96 inches for each event. The deficit irrigation treatments were scheduled at approximately 60% of the fully irrigated plots. Volumetric soil water content was measured in one-foot increments to a depth of 8 ft on an approximately weekly basis throughout the crop season to determine total water use. Crop water use was calculated as the sum of irrigation, precipitation and changes in soil water between the initial and final soil water sampling dates. Water productivity (WUE) was calculated as the crop yield divided by the seasonal water use (Water Productivity (WP)=Yield/ETc). […] Crop yield from each replication was recorded after harvest and adjusted to 15% moisture content. Corn yield components of crop grain yield, plants/area, ears/plant, and kernel weight were measured by hand harvesting a representative sample.

Compound | Azoxystrobin % IWUE Increase over Untr./60% irr. (corn [1]; chemigated) | Azoxystrobin % Yield Increase over Untr./60% irr. (corn [1]; chemigated) | IWUE (water productivity) (corn [1]; chemigated) [lbs/acre inch] | Yield (corn [1]; foliar applied (V6 & R1)) [Bu./acre] | Azoxystrobin % IWUE Increase over Untr./60% irr. (corn [1]; foliar applied) | Azoxystrobin % Yield Increase over Untr./60% irr. (corn [1]; foliar applied) | IWUE (water productivity) (corn [1]; foliar applied) [lbs/acre inch] | Yield (corn [1]; sprinkler chemigated (V6 & R1)) [Bu./acre] | % IWUE Increase over Untr./60% irr. (corn [2]) | % Yield Increase over Untr./60% irr. (corn [2]) | IWUE (water productivity) (corn [2]) [lbs/acre inch] | Yield (corn [2]) [Bu./acre]
CO/C=C(/C(=O)OC)c1ccccc1Oc1cc(Oc2ccccc2C#N)ncn1 [Azoxystrobin, azoxystrobin] | +11% over | +5% over | 515 | 239 | +16% over | +7% over | 540 | 236 | – | – | – | –
CCOC(=O)C1CC(=O)C(=C(O)C2CC2)C(=O)C1 (stereo not drawn) [TXP, trinexapac-ethyl] | – | – | – | – | – | – | – | – | +5% over | +3.5% over | 484 | 209
